Experimental data reported in BindingDB's records for doi:10.1016/s0960-894x(98)00417-x (Affymax Research Institute, 1999).

Key:
[1] = biological target: Mannose-6-phosphate isomerase (Candida albicans) (UniProt P34948); test: Compound was evaluated for the inhibition constant against phosphomannose isomerase enzyme of Candida albicans (CaPMI)
[2] = biological target: Mannose-6-phosphate isomerase (Candida albicans) (UniProt P34948); test: Compound was tested for percentage inhibition of phosphomannose isomerase enzyme of Candida albicans (CaPMI).

Sequence of Mannose-6-phosphate isomerase (Candida albicans) (P34948 whole entry, looked up): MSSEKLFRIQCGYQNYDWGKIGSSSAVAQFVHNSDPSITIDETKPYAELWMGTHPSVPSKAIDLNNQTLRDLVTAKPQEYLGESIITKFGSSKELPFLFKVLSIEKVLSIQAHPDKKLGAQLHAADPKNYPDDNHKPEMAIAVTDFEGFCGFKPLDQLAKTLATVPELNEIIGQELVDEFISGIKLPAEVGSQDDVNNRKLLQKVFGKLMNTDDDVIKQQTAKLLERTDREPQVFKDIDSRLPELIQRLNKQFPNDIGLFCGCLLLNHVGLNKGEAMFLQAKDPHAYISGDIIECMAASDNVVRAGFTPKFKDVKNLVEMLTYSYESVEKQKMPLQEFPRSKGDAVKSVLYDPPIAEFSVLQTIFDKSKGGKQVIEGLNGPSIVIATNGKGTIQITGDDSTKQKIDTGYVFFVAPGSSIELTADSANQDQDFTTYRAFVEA

SMILES	Ki [1] [µM]	IC50 [2] [µM]
NC(=O)C1(NC(=O)CCCOc2ccc(Cl)cc2Cl)Cc2ccccc2C1 [2-[4-(2,4-Dichloro-phenoxy)-butyrylamino]-indan-2-carboxylic acid amide]	4	
O=C(CCCSc1ccc(Cl)c(Cl)c1)NC1(C(=O)NO)Cc2ccccc2C1 [2-[4-(3,4-Dichloro-phenylsulfanyl)-butyrylamino]-indan-2-carboxylic acid hydroxyamide]	4	6
